Measured values published in patent US20250313879A1, “Fluorescent Probe for Detecting Peptide Bond Hydrolase” (The University of Tokyo, priority 2022, published 2025).
Numbered stars: 1 amine (or outer) side, 2 acyl side, 3 side chain; on linkers, the order of the positions; unused ones are H or OH. Square brackets hold non-standard residues; d marks the D form. Peptide text beside a SMILES is read from it. * marks the point of attachment. X2 = Cc1ccc(S(=O)(=O)O)cc1C1=C2C=CC(=N)C=C2[Si](C)(C)c2cc(N*)ccc21; X1 = Nc1ccc2c(c1)Oc1cc(N*)ccc1C21OCc2cc(S(=O)(=O)O)ccc21; Suc = O=C(CCC(=O)[*:2])[*:1]

How the values were obtained:
Type in all cases: biochemical
[1] = system: aminopeptidase activity in human plasma sample; assay: Enzyme activity assay in microdevice with human plasma, aminopeptidase probes; settings: 50 μM probe
Method: • 1. Ala-sHMRG as a fluorescent probe for detecting aminopeptidase activity was diluted with an assay buffer to 100 μM. The composition of the assay buffer is 100 mM HEPES-NaOH (pH 7.4), 1 mM MgCl2, 0.1% BSA, 1 mM DTT, 1 mM Triton X-100, • 2. Next, a human plasma sample was diluted by 500 times with the above assay buffer, and mixed in an equal amount with the diluted solution of the probe. At this time, the final concentrations of both are 50 μM for Ala-sHMRG and 1,000 fold dilution for the human plasma sample. • 3. The mixed solution of both was then added to a microdevice, followed by the addition of sealing oil to enclose the solution in each well. • 4. The microdevice in which the solution was enclosed was incubated at 37° C. for 4 hours, and then the fluorescence intensity of each well was measured with a fluorescence microscope.
(§1) • 1. Leu-sHMRG as a fluorescent probe for detecting aminopeptidase activity was diluted with an assay buffer to 100 μM. The composition of the assay buffer is 100 mM HEPES-NaOH (pH 7.4), 1 mM MgCl2, 1 mM DTT, 3 mM Triton X-100. • 2. Next, a human plasma sample was diluted by 2,500 times with the above assay buffer, and mixed in an equal amount with the diluted solution of the probe. At this time, the final concentrations of both are 50 μM for Leu-sHMRG and 5,000 fold dilution for the human plasma sample. • 3. The mixed solution of both was then added to a microdevice, followed by the addition of sealing oil to enclose the solution in each well. • 4. The microdevice in which the solution was enclosed was incubated at 37° C. for 4 hours, and then the fluorescence intensity of each well was measured with a fluorescence microscope.
(§2) • 5. Met-sHMRG as a fluorescent probe for detecting aminopeptidase activity was diluted with an assay buffer to 100 μM. The composition of the assay buffer is 100 mM HEPES-NaOH (pH 7.4), 1 mM MgCl2, 1 mM CaCl2, 1 mM DTT, 3 mM Triton X-100. • 6. Next, a human plasma sample was diluted by 500 times with the above assay buffer, and mixed in an equal amount with the diluted solution of the probe. At this time, the final concentrations of both are 50 μM for Met-sHMRG and 1,000 fold dilution for the human plasma sample. • 7. The mixed solution of both was then added to a microdevice, followed by the addition of sealing oil to enclose the solution in each well. • 8. The microdevice in which the solution was enclosed was incubated at 37° C. for 2 hours, and then the fluorescence intensity of each well was measured with a fluorescence microscope.
as §2, with “• 9. Tyr-sHMRG” for “• 5. Met-sHMRG”, “• 10.” for “• 6.”, “for Tyr-sHMRG” for “for Met-sHMRG”, “• 11.” for “• 7.”, “• 12.” for “• 8.”, “for 4” for “for 2”
• 1. Lys-sHMRG as a fluorescent probe for detecting aminopeptidase activity was diluted with an assay buffer to 100 μM. The composition of the assay buffer is 100 mM HEPES-NaOH (pH 7.4), 1 mM MgCl2, 1 mM CaCl2, 1 mM DTT, 3 mM Triton X-100. • 2. Next, a human plasma sample was diluted by 10,000 times with the above assay buffer, and mixed in an equal amount with the diluted solution of the probe. At this time, the final concentrations of both are 50 μM for Lys-sHMRG and 20,000 fold dilution for the human plasma sample. • 3. […]

[2] = system: peptidase activity in human plasma sample; assay: Enzyme activity assay in microdevice with human plasma, peptidase probes; settings: 50 μM probe
Method: as §1, with “1. GP-sHMRG” for “1. Leu-sHMRG”, “detecting peptidase” for “detecting aminopeptidase”, “MgCl2, 1 mM CaCl2,” for “MgCl2,”, “for GP-sHMRG” for “for Leu-sHMRG”, “at 25°” for “at 37°”, “for 2” for “for 4”
as §1, with “• 1. Ac-Ala-sHMRG as a” for “• 1. Leu-sHMRG as a”, “for detecting peptidase activity was” for “for detecting aminopeptidase activity was”, “1 mM CaCl2, 1 mM DTT, 3” for “1 mM DTT, 3”, “diluted by 250 times with” for “diluted by 2,500 times with”, “μM for Ac-Ala-sHMRG and 500” for “μM for Leu-sHMRG and 5,000”, “Ac-Ala-sHMRG and 500 fold dilution” for “Leu-sHMRG and 5,000 fold dilution”
• 1. Ac-GP-sSiR as a fluorescent probe for detecting peptidase activity was diluted with an assay buffer to 100 μM. The composition of the assay buffer is 100 mM HEPES-NaOH (pH 7.4), 1 mM MgCl2, 1 mM CaCl2, 1 mM DTT, 3 mM Triton X-100. • 2. […] The microdevice in which the solution was enclosed was incubated at 37° C. for 2 hours, and then the fluorescence intensity of each well was measured with a fluorescence microscope.

[3] = system: protease activity in human plasma sample; assay: Enzyme activity assay in microdevice with human plasma, protease probes
Method: • 1. Suc-AAPA-sHMRG as a fluorescent probe for detecting protease activity was diluted with an assay buffer to 200 μM. The composition of the assay buffer is 100 mM HEPES-NaOH (pH 7.4), 1 mM MgCl2, 1 mM CaCl2, 1 mM DTT, 3 mM Triton X-100. • 2. Next, a human plasma sample was diluted by 250 times with the above assay buffer, and mixed in an equal amount with the diluted solution of the probe. At this time, the final concentrations of both are 100 μM for Suc-AAPA-sHMRG and 500 fold dilution for the human plasma sample. • 3. The mixed solution of both was then added to a microdevice, followed by the addition of sealing oil to enclose the solution in each well. • 4. The microdevice in which the solution was enclosed was incubated at 37° C. for 4 hours, and then the fluorescence intensity of each well was measured with a fluorescence microscope.
• 1. Ac-LRGG-sSiR as a fluorescent probe for detecting protease activity was diluted with an assay buffer to 100 μM. The composition of the assay buffer is 100 mM HEPES-NaOH (pH 7.4), 1 mM MgCl2, 1 mM CaCl2, 1 mM DTT, 3 mM Triton X-100. • 2. Next, a human plasma sample was diluted by 10,000 times with the above assay buffer, and mixed in an equal amount with the diluted solution of the probe. At this time, the final concentrations of both are 50 μM for Ac-LRGG-sSiR and 20,000 fold dilution for the human plasma sample. • 3. The mixed solution of both was then added to a microdevice, followed by the addition of sealing oil to enclose the solution in each well. • 4. The microdevice in which the solution was enclosed was incubated at 37° C. for 2 hours, and then the fluorescence intensity of each well was measured with a fluorescence microscope.
• 1. EP-sSiR as a fluorescent probe for detecting protease activity was diluted with an assay buffer to 60 μM. […] The microdevice in which the solution was enclosed was incubated at 25° C. for 2 hours, and then the fluorescence intensity of each well was measured with a fluorescence microscope.

[4] = human plasma 1,000 fold dilution, 37° C. for 2 hours
[5] = human plasma 1,000 fold dilution, 37° C. for 4 hours
[6] = human plasma 20,000 fold dilution, 37° C. for 2 hours

SMILES: Nc1ccc2c(c1)Oc1cc(NC(=O)CC[C@@H](N)C(=O)O)ccc1C21OCc2cc(S(=O)(=O)O)ccc21 (stereo partly shown) [gGlu-sHMRG]
- fluorescence intensity of wells in which the reacting enzyme was enclosed [1, 4]: increase in fluorescence intensity was observed

SMILES: C[C@H](N)C(=O)Nc1ccc2c(c1)Oc1cc(N)ccc1C21OCc2cc(S(=O)(=O)O)ccc21 (stereo partly shown) [Ala-sHMRG]
- fluorescence intensity of wells in which the reacting enzyme was enclosed [1, 5]: increase in fluorescence intensity was observed

SMILES: Nc1ccc2c(c1)Oc1cc(NC(=O)[C@@H](N)Cc3ccc(O)cc3)ccc1C21OCc2cc(S(=O)(=O)O)ccc21 (stereo partly shown) [Tyr-sHMRG]
- fluorescence intensity of wells in which the reacting enzyme was enclosed [1, 5]: increase in fluorescence intensity was observed

SMILES: CC(C)C[C@H](N)C(=O)Nc1ccc2c(c1)Oc1cc(N)ccc1C21OCc2cc(S(=O)(=O)O)ccc21 (stereo partly shown) [Leu-sHMRG]
- fluorescence intensity of wells in which the reacting enzyme was enclosed ([1]; human plasma 5,000 fold dilution, 37° C. for 4 hours): increase in fluorescence intensity was observed

SMILES: CC(=O)NCC(=O)N1CCCC1C(=O)Nc1ccc2c(c1)[Si](C)(C)C1=CC(=N)C=CC1=C2c1cc(S(=O)(=O)O)ccc1C (stereo not shown) [Ac-GP-sSiR]
- fluorescence intensity of wells in which the reacting enzyme was enclosed [2, 6]: increase in fluorescence intensity was observed

SMILES: NCCCC[C@H](N)C(=O)Nc1ccc2c(c1)Oc1cc(N)ccc1C21OCc2cc(S(=O)(=O)O)ccc21 (stereo partly shown) [Lys-sHMRG]
- fluorescence intensity of wells in which the reacting enzyme was enclosed [1, 6]: increase in fluorescence intensity was observed

SMILES: Cc1ccc(S(=O)(=O)O)cc1C1=C2C=CC(=N)C=C2[Si](C)(C)c2cc(NC(=O)[C@@H](N)Cc3c[nH]c4ccccc34)ccc21 [Trp-sSiR]
- fluorescence intensity of wells in which the reacting enzyme was enclosed [1, 5]: increase in fluorescence intensity was observed

SMILES: Cc1ccc(S(=O)(=O)O)cc1C1=C2C=CC(=N)C=C2[Si](C)(C)c2cc(NC(=O)C3CCCN3C(=O)[C@@H](N)CCC(=O)O)ccc21 (stereo partly shown) [EP-sSiR]
- fluorescence intensity of wells in which the reacting enzyme was enclosed ([3]; 30 μM probe, human plasma 5,000 fold dilution, 25° C. for 2 hours): increase in fluorescence intensity was observed

SMILES: CC(=O)N[C@@H](CC(C)C)C(=O)N[C@H](CCCNC(=N)N)C(=O)NCC(=O)NCC(=O)Nc1ccc2c(c1)[Si](C)(C)C1=CC(=N)C=CC1=C2c1cc(S(=O)(=O)O)ccc1C [Ac-LRGG-sSiR] (Ac-L[dR]GG-X2)
- fluorescence intensity of wells in which the reacting enzyme was enclosed ([3]; 50 μM probe, human plasma 20,000 fold dilution, 37° C. for 2 hours): increase in fluorescence intensity was observed

SMILES: C[C@H](NC(=O)CCC(=O)O)C(=O)N[C@@H](C)C(=O)N1CCC[C@@H]1C(=O)N[C@@H](C)C(=O)Nc1ccc2c(c1)Oc1cc(N)ccc1C21OCc2cc(S(=O)(=O)O)ccc21 (stereo partly shown) [Suc-AAPA-sHMRG] (Suc-AA[dP]A-X1)
- fluorescence intensity of wells in which the reacting enzyme was enclosed ([3]; 100 μM probe, human plasma 500 fold dilution, 37° C. for 4 hours): increase in fluorescence intensity was observed

SMILES: Cc1ccc(S(=O)(=O)O)cc1C1=C2C=CC(=N)C=C2[Si](C)(C)c2cc(NC(=O)[C@@H](N)CCCNC(=N)N)ccc21 [Arg-sSiR]
- fluorescence intensity of wells in which the reacting enzyme was enclosed [1, 5]: increase in fluorescence intensity was observed

SMILES: CC(=O)N[C@@H](C)C(=O)Nc1ccc2c(c1)Oc1cc(N)ccc1C21OCc2cc(S(=O)(=O)O)ccc21 (stereo partly shown) [Ac-Ala-sHMRG]
- fluorescence intensity of wells in which the reacting enzyme was enclosed ([2]; human plasma 500 fold dilution, 37° C. for 4 hours): increase in fluorescence intensity was observed

SMILES: CSCC[C@H](N)C(=O)Nc1ccc2c(c1)Oc1cc(N)ccc1C21OCc2cc(S(=O)(=O)O)ccc21 (stereo partly shown) [Met-sHMRG]
- fluorescence intensity of wells in which the reacting enzyme was enclosed [1, 4]: increase in fluorescence intensity was observed
